Results: ChEMBL document CHEMBL5154694, “Fascaplysin derivatives binding to DNA via unique cationic five-ring coplanar backbone showed potent antimicrobial/antibiofilm activity against MRSA in vitro and in vivo” (Eur J Med Chem, 2022)
Calls of active or inactive are those of the source. The rule behind the calls is not given here.

Legend:
[1] = system: Staphylococcus aureus; experiment: Bactericidal activity against methicillin-resistant Staphylococcus aureus ATCC 4330 assessed as reduction in bacterial counts at 2X MIC within 0.5 hrs by time-kill kinetic assay; type: functional
[2] = system: Staphylococcus aureus; experiment: Bactericidal activity against methicillin-resistant Staphylococcus aureus ATCC 4330 assessed as reduction in bacterial counts at 4X MIC by time-kill kinetic assay; type: functional, organism-based
[3] = system: Staphylococcus aureus; experiment: Bactericidal activity against methicillin-resistant Staphylococcus aureus ATCC 4330 assessed as reduction in bacterial counts at 1 to 4X MIC within 24 hrs by time-kill kinetic assay; type: functional
[4] = system: Staphylococcus aureus; experiment: Antibacterial activity against methicillin-resistant Staphylococcus aureus ATCC 4330 after 16 to 18 hrs by microbroth dilution method; type: functional; conditions: time 16-18 hrs
[5] = Toxicity in female ICR peritonitis mouse model infected with methicillin-resistant Staphylococcus aureus ATCC 4330 assessed as kidney damage at 10 mg/kg, ip; type: organism-based; conditions: in vivo
[6] = system: Staphylococcus aureus; experiment: Antimicrobial activity against methicillin-resistant Staphylococcus aureus ATCC 4330 infected in female ICR peritonitis mouse model assessed as survival time of mouse at 10 mg/kg, ip; type: functional
[7] = Cytotoxicity against mouse RAW264.7 cells assessed as cell survival at 12.5 ug/ml incubated for 24 hrs by CCK-8 assay; type: toxicity, cell-based; conditions: at 12.5 µg/mL, read-out: Activity
[8] = system: Staphylococcus aureus; experiment: Antimicrobial activity against methicillin-resistant Staphylococcus aureus ATCC 4330 infected in female ICR peritonitis mouse model assessed as increase in survival rate of mouse at 10 mg/kg, ip; type: functional
[9] = system: Staphylococcus aureus; experiment: Antibiofilm activity against methicillin-resistant Staphylococcus aureus ATCC 4330 assessed as fold change in upregulation of AgrA mRNA expression at 4X MIC after 2 hrs by qRT-PCR assay; type: functional
[10] = Toxicity in female ICR peritonitis mouse model infected with methicillin-resistant Staphylococcus aureus ATCC 4330 assessed as liver damage at 10 mg/kg, ip; type: organism-based; conditions: in vivo
[11] = Cytotoxicity against mouse RAW264.7 cells assessed as cell survival at 50 ug/ml incubated for 24 hrs by CCK-8 assay; type: toxicity, cell-based; conditions: at 50 µg/mL, read-out: Activity
[12] = Hemolytic activity in mouse erythrocytes assessed as hemolysis at 12.5 ug/ml relative to control; type: toxicity, cell-based, Erythrocyte; conditions: at 12.5 µg/mL, read-out: Activity
[13] = system: Staphylococcus aureus; experiment: Antibiofilm activity against methicillin-resistant Staphylococcus aureus ATCC 4330 assessed as inhibition of biofilm formation at 50 ug/ml after 24 hrs by crystal violet staining based assay relative to control; type: functional
[14] = Cytotoxicity against mouse RAW264.7 cells assessed as cell survival at 25 ug/ml incubated for 24 hrs by CCK-8 assay; type: toxicity, cell-based; conditions: at 25 µg/mL, read-out: Activity
[15] = Toxicity in female ICR peritonitis mouse model infected with methicillin-resistant Staphylococcus aureus ATCC 4330 assessed as lung damage at 10 mg/kg, ip; type: organism-based; conditions: in vivo
[16] = system: Staphylococcus aureus; experiment: Bactericidal activity against methicillin-resistant Staphylococcus aureus ATCC 4330 assessed as inhibition of bacterial regrowth at 2X MIC after 24 hrs by time-kill kinetic assay; type: functional, organism-based
[17] = system: Staphylococcus aureus; experiment: Antimicrobial activity against methicillin-resistant Staphylococcus aureus ATCC 4330 infected in female ICR peritonitis mouse model assessed as reduction in bacteria in blood at 10 mg/kg, ip; type: functional
[18] = system: DNA; experiment: Inhibition of methicillin-resistant Staphylococcus aureus ATCC 4330 genomic DNA migration at 3.125 to 6.25 ug/ml measured by electrophoretic mobility assay; type: nucleic-acid assay; conditions: dose 3.125-6.25 µg/ml
[19] = system: Staphylococcus aureus; experiment: Induction of membrane morphological changes in methicillin-resistant Staphylococcus aureus ATCC 4330 assessed as visible cell wall fragments at 4X MIC after 2 hrs by transmission electron microscopy; type: functional
[20] = system: Staphylococcus aureus; experiment: Induction of membrane morphological changes in methicillin-resistant Staphylococcus aureus ATCC 4330 assessed as visible cell filaments at 4X MIC after 2 hrs by scanning electron microscopy; type: functional
[21] = system: Staphylococcus aureus; experiment: Induction of membrane morphological changes in methicillin-resistant Staphylococcus aureus ATCC 4330 assessed as visible cell membrane disruption at 4X MIC after 2 hrs by transmission electron microscopy; type: functional
[22] = system: DNA; experiment: Binding affinity to methicillin-resistant Staphylococcus aureus ATCC 4330 DNA assessed as induction of confirmational changes at 50 ug/ml measured by Circular dichroism assay; type: nucleic-acid assay; conditions: dose 50.0 µg/ml
[23] = system: Staphylococcus aureus; experiment: Induction of membrane morphological changes in methicillin-resistant Staphylococcus aureus ATCC 4330 assessed as visible cell surface wrinkles at 4X MIC after 2 hrs by scanning electron microscopy; type: functional
[24] = system: Staphylococcus aureus; experiment: Induction of membrane morphological changes in methicillin-resistant Staphylococcus aureus ATCC 4330 assessed as ghost cells at 4X MIC after 2 hrs by transmission electron microscopy; type: functional
[25] = system: Staphylococcus aureus; experiment: Antibiofilm activity against methicillin-resistant Staphylococcus aureus ATCC 4330 assessed as inhibition of biofilm formation at 1.56 ug/ml after 24 hrs by crystal violet staining based assay relative to control; type: functional
[26] = system: Staphylococcus aureus; experiment: Induction of membrane morphological changes in methicillin-resistant Staphylococcus aureus ATCC 4330 assessed as fluorescent intensity at 1 to 4X MIC measured after 30 to 120 mins by propidium iodide staining based flow cytometry assay; type: functional; conditions: time 30-120 min

O=C(O)c1ccc2[nH]c3c4[n+](ccc3c2c1)-c1ccccc1C4=O.[Br-]
Activity [1]: 0 log10CFU/ml
Activity [2]: Active
Activity [3]: 2 log10CFU/ml
MIC [4]: 6.25 µg/mL

O=C1c2ccccc2-[n+]2ccc3c([nH]c4ccccc43)c21.[Br-]
Activity [5]: Non-Toxic
Survival [6]: 2 days
viability at 24 h, 12.5 ug/ml [7]: 91.7%
Activity [1]: 0 log10CFU/ml
Activity [8]: 20%
fold change (FC) [9]: 1.67
Activity [3]: 2 log10CFU/ml
Activity [10]: Non-Toxic
viability at 24 h, 50 ug/ml [11]: 100%
MIC [4]: 0.39 µg/mL
hemolysis at 12.5 ug/ml [12]: 0%
inhibition at 50 µg/mL [13]: 27.4%
viability at 24 h, 25 ug/ml [14]: 100%
Activity [15]: Non-Toxic

CCCCNC(=O)c1ccc2[nH]c3c4[n+](ccc3c2c1)-c1ccccc1C4=O.[Br-]
Activity [16]: Active
Activity [1]: 0.5 log10CFU/ml
Activity [2]: Active
Activity [3]: 2 log10CFU/ml
MIC [4]: 6.25 µg/mL

Cc1ccc2[nH]c3c4[n+](ccc3c2c1)-c1ccccc1C4=O.[Cl-]
Activity [1]: 0.1 log10CFU/ml
Activity [3]: 2 log10CFU/ml
MIC [4]: 0.78 µg/mL

NC(=O)c1ccc2[nH]c3c(C(=O)c4ccccc4Br)nccc3c2c1
MIC [4]: > 200 µg/mL

CCCCNC(=O)c1ccc2[nH]c3c(C(=O)c4ccccc4Br)nccc3c2c1
MIC [4]: > 200 µg/mL

Cc1ccc2[nH]c3c(C(=O)c4ccccc4Cl)nccc3c2c1
MIC [4]: > 200 µg/mL

NC(=O)c1ccc2[nH]c3c4[n+](ccc3c2c1)-c1ccccc1C4=O.[Br-]
MIC [4]: 200 µg/mL

O=C1c2ccccc2-[n+]2ccc3c([nH]c4ccc(Br)cc43)c21.[Br-]
Activity [17]: Active
inhibition of DNA migration [18]: Active
Activity [5]: Non-Toxic
Survival [6]: 2 days
viability at 24 h, 12.5 ug/ml [7]: 72.3%
Activity [16]: Active
Activity [1]: 2.4 log10CFU/ml
Activity [19]: Active
Activity [20]: Active
Activity [2]: Active
Activity [21]: Active
Activity [8]: 20%
fold change (FC) [9]: 2.12
Activity [3]: 2 log10CFU/ml
Activity [10]: Non-Toxic
Activity [22]: Active
Activity [23]: Active
Activity [24]: Active
viability at 24 h, 50 ug/ml [11]: 92.9%
MIC [4]: 0.098 µg/mL
hemolysis at 12.5 ug/ml [12]: 0%
inhibition at 1.56 µg/mL [25]: 74.9%
viability at 24 h, 25 ug/ml [14]: 86.5%
Activity [26]: 19.3%
Activity [15]: Non-Toxic

CN[C@H](CC(C)C)C(=O)N[C@H]1C(=O)N[C@@H](CC(N)=O)C(=O)N[C@H]2C(=O)N[C@H]3C(=O)N[C@H](C(=O)N[C@H](C(=O)O)c4cc(O)cc(O)c4-c4cc3ccc4O)[C@H](O)c3ccc(c(Cl)c3)Oc3cc2cc(c3O[C@@H]2O[C@H](CO)[C@@H](O)[C@H](O)[C@H]2O[C@H]2C[C@](C)(N)[C@H](O)[C@H](C)O2)Oc2ccc(cc2Cl)[C@H]1O [VANCOMYCIN]
Activity [1]: 0.1 log10CFU/ml
Activity [2]: Active
Activity [3]: 2 log10CFU/ml
